From paper PMC3112249 (Cancer chemotherapy and pharmacology, 2011)

What was measured:
[1] = cited from earlier work
[2] = 107 male patients, paclitaxel 100 mg/m^2 intravenously over 3 hours every 2 weeks, 77% received protease inhibitors; cited from earlier work
[3] = tested on: HIV-associated Kaposi's sarcoma; test: Objective response, progression-free survival and survival on paclitaxel; format: in vivo, human
[4] = format: in vivo, human; conditions: paclitaxel 100 mg/m^2 IV over 3 h, cycle 1; patients taking protease inhibitors
[5] = 20 evaluable patients, no prior paclitaxel, 100 mg/m^2 IV every 14 days

## O=P1(N(CCCl)CCCl)NCCCO1 (centres unmarked) [cyclophosphamide]
[1]; 29 patients receiving CHOP chemotherapy with HAART
  clearance reduced compared to historical controls: 1.5 fold

## CC(=O)O[C@H]1C(=O)[C@@]2(C)[C@H]([C@H](OC(=O)c3ccccc3)[C@]3(O)C[C@H](OC(=O)[C@H](O)[C@@H](NC(=O)c4ccccc4)c4ccccc4)C(C)=C1C3(C)C)[C@]1(OC(C)=O)CO[C@@H]1C[C@@H]2O [Paclitaxel]
[2]
  differences in the incidence or severity of toxicity, patients receiving protease inhibitors compared to those who did not: No differences
[3]; [5]
  best response: partial response, patients: 30%
  best response: progressive disease, patients: 10%
  best response: stable disease (SD), patients: 50%
[3]; 20 patients assessable for response
  objective response, patients: 30%
[3]; 20 patients, no prior paclitaxel
  three year survival rate: 67%
[3]; 20 patients, no prior paclitaxel, 100 mg/m^2 IV every 14 days
  median progression free survival: 7.8 months
[3]; 20 patients, no prior paclitaxel, median follow-up of 50 months in the 13 surviving patients
  median overall survival: had not been reached
[4]
  duration spent at a paclitaxel concentration > 0.05 μM: 19.0 (3.0–27.8) hr
20 patients, paclitaxel as first line therapy
  treatment-related infection of grade 3 or higher, patients: 15%
PI (n=15)
  Infection Grade 3, patients no. (%): 3 (20%)
human, in vivo
  Abdominal cramps Grade 3, patients no. (%): 1 (7%)
  Anemia Grade 3, patients no. (%): 2 (13%)
  Anemia Grade 4, patients no. (%): 1 (7%)
  Cardiac toxicity Grade 4, patients no. (%): 1 (5%)
  Eye irritation Grade 3, patients no. (%): 1 (7%)
  Fatigue Grade 3, patients no. (%): 2 (13%)
  GU toxicity Grade 3, patients no. (%): 1 (7%)
  Granulocytopenia Grade 3, patients no. (%): 3 (20%)
  Ileus Grade 4, patients no. (%): 1 (7%)
  Leukopenia Grade 4, patients no. (%): 1 (20%)
  Liver toxicity Grade 3, patients no. (%): 1 (7%)
  Liver toxicity Grade 4, patients no. (%): 1 (7%)
  Metabolic toxicity Grade 3, patients no. (%): 1 (7%)
  Metabolic toxicity Grade 4, patients no. (%): 1 (7%)
  Neuro-motor toxicity Grade 3, patients no. (%): 1 (7%)
  Pulmonary toxicity Grade 3, patients no. (%): 1 (7%)
  Pulmonary toxicity Grade 4, patients no. (%): 1 (20%)
  Skin toxicity Grade 3, patients no. (%): 1 (20%)
  Thrombocytopenia Grade 4, patients no. (%): 1 (7%)
  WORST DEGREE of toxicity Grade 3, patients no. (%): 7 (47%)
  treatment-related anemia of grade 3 or higher, patients: 15%
  treatment-related granulocytopenia of grade 3 or higher, patients: 40%

## COc1cccc2c1C(=O)c1c(O)c3c(c(O)c1C2=O)C[C@@](O)(C(=O)CO)C[C@@H]3O[C@H]1C[C@H](N)[C@H](O)[C@H](C)O1 [doxorubicin]
[1]; human, in vivo
  effects on clearance: No significant effects
